From US10954221B2, “GLP-1R agonists and uses thereof” (QILU REGOR THERAPEUTICS INC., priority 2019, dated 2021) come the findings set out here.

Bounds are passed on as bounds.

In this experiment the target is GLP1R (Homo sapiens, UniProt P43220). Nature of the experiment: GLP1R cAMP assay (HTRF), HEK293/GLP-1R/CRE/Luc, Clone 4. (In general: cAMP levels reflect the balance of adenylyl cyclase and phosphodiesterase activity.)
GLP1R, sequence (P43220 24-463): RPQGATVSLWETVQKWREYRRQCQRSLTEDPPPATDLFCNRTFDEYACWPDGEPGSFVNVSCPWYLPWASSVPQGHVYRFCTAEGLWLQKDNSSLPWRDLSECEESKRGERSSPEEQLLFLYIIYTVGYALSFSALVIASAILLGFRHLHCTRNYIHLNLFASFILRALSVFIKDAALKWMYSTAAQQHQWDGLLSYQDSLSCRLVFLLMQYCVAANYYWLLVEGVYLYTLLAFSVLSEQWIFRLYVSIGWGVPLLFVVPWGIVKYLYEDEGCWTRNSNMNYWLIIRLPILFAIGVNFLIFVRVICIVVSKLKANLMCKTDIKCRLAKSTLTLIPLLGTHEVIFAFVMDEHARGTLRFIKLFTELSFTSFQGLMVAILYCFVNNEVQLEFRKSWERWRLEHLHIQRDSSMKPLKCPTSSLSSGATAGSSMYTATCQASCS
Method: GLP-1R-mediated agonist activity was determined with a cell-based functional assay utilizing an HTRF (Homogeneous Time-Resolved Fluorescence) cAMP detection kit (cAMP Dynamic 2 Assay Kit; CisBio cat #62AM4PEC) that measures cAMP levels in the cell. The method is a competitive immunoassay between native cAMP produced by the cells and exogenous cAMP labeled with the dye d2. The tracer binding is visualized by a mAb anti-cAMP labeled with Cryptate. The specific signal (i.e., energy transfer) is inversely proportional to the concentration of cAMP in either standard or experimental sample.
The human GLP-1R coding sequence (NCBI Reference Sequence NM_002062) was subcloned into pcDNA3.1+/Hygro vector (Invitrogen) and transfected into HEK293/CRE/Luc parental cell line. A cell line stably expressing the receptor was isolated.
Varying concentrations of each compound to be tested (in DMSO) were diluted in DMSO to obtain 200× compound working solution first and then 50 nl compounds were added to a white 384-well assay plate (Greiner 784075) with ECHO. The final DMSO concentration was 0.5%.
Cells were removed from cryopreservation, re-suspended in 5 mL of Dulbecco's Phosphate Buffered Saline (DPBS-Sigma Cat #D8537) and centrifuged at 900×g for 5 min at 22° C. The cell pellet was then re-suspended in 1 mL of assay buffer [DPBS with 500 μM IBMX (Sigma #15879) and 0.1% BSA (Sigma #A1933). IBMX and BSA were freshly added on the day of assay]. A 10 μL sample of the cell suspension was counted on an Invitrogen Countess II to determine cell viability and cell count per mL. The remaining cell suspension was then adjusted with assay buffer to deliver 1000 viable cells per well using a Matrix Combi Multidrop reagent dispenser. 10 μL cell suspensions were added to each well
of the assay plate which already contains compound. The plate was sealed and incubated at 37° C. with 5% CO2 for 30 minutes.
Following the 30 minute incubation, 5 μL of labeled d2 cAMP and 5 μL of anti-cAMP antibody (both diluted 1:20 in cell lysis buffer; as described in the manufacturer's assay protocol) were added to each well of the assay plate. The plates were then incubated at room temperature and after 60 minutes, changes in the HTRF signal were read with an Envision multi-label plate reader using excitation of 330 nm and emissions of 615 and 665 nm. Raw data were converted to nM cAMP by interpolation from a cAMP standard curve (as described in the manufacturer's assay protocol) and the percent effect was determined relative to a saturating concentration of the full agonist GLP-17-37 (10 nM) included on each plate. EC50 determinations were made from agonist dose-response curves analyzed with a curve fitting program using a 4-parameter logistic dose response equation.
For `N#Cc1ccc(COc2cccc(N3CCC(=Cc4nc5ccc(C(=O)O)cc5n4C[C@@H]4CCO4)CC3)n2)c(F)c1` [Compound 317, (S)-2-((1-(6-((4-cyano-2-fluorobenzyl)oxy)pyridin-2-yl)piperidin-4-ylidene)methyl)-1-(oxetan-2-ylmethyl)-1H-benzo[d]imidazole-6-carboxylic acid], the half-maximal effective concentration (EC50) (usually the concentration that produces a half-maximal response) is below 15 nM.

In turn, `O=C(O)c1ccc2nc(Cc3ccc(-c4nc(OCc5ccc(Cl)cc5F)ccc4F)cc3F)n(C[C@@H]3CCO3)c2c1` [Compound 92, (S)-2-(4-(6-((4-chloro-2-fluorobenzyl)oxy)-3-fluoropyridin-2-yl)-2-fluorobenzyl)-1-(oxetan-2-ylmethyl)-1H-benzo[d]imidazole-6-carboxylic acid] returned a concentration giving a half-maximal response (EC50) below 15 nM.

`O=C(O)c1ccc2nc(Cc3cc(F)c(-c4cccc(OCc5ncc(F)cc5F)n4)cc3F)n(C[C@@H]3CCO3)c2n1` [Compound 297, (S)-2-(4-(6-((3,5-difluoropyridin-2-yl)methoxy)pyridin-2-yl)-2,5-difluorobenzyl)-3-(oxetan-2-ylmethyl)-3H-imidazo[4,5-b]pyridine-5-carboxylic acid] yielded an EC50 below 15 nM.

Consider `O=C(O)c1ccc2nc(Cc3ccc(-c4nc(OCc5ccc(Cl)cc5F)c(F)cc4F)cc3F)n(C[C@@H]3CCO3)c2n1` [Compound 299, (S)-2-(4-(6-(4-chloro-2-fluorobenzyloxy)-3,5-difluoropyridin-2-yl)-2-fluorobenzyl)-3-(oxetan-2-ylmethyl)-3H-imidazo [4,5-b]pyridine-S-carboxylic acid], for which the EC50 was below 15 nM.

`N#Cc1ccc(COc2cccc(C3=CCN(Cc4nc5ccc(B(O)O)cc5n4C[C@@H]4CCO4)CC3)n2)c(F)c1` [Compound 328, (S)-(2-((6-((4-cyano-2-fluorobenzyl)oxy)-3′,6′-dihydro-[2,4′-bipyridin]-1′(2′H)-yl)methyl)-1-(oxetan-2-ylmethyl)-1H-benzo[d]imidazol-6-yl)boronic acid] showed an EC50 of 15 to 150 nM.

`N#Cc1ccc(COc2nc(-c3ccc(Cc4nc5ccc(C(=O)O)cc5n4C[C@@H]4CCO4)c(F)c3)ccc2F)c(F)c1` [Compound 264, (S)-2-(4-(6-((4-cyano-2-fluorobenzyl)oxy)-5-fluoropyridin-2-yl)-2-fluorobenzyl)-1-(oxetan-2-ylmethyl)-1H-benzo[d]imidazole-6-carboxylic acid] had an EC50 below 15 nM.

The molecule `N#Cc1ccc(COc2cccc(N3CCC(=Cc4nc5ccc(C(=O)O)nc5n4C[C@@H]4CCO4)CC3)n2)c(F)c1` [Compound 314, (S)-2-((1-(6-(4-cyano-2-fluorobenzyloxy)pyridin-2-yl)piperidin-4-ylidene)methyl)-3-(oxetan-2-ylmethyl)-3H-imidazo [4,5-b] pyridine-S-carboxylic acid] came in with an EC50 of 15 to 150 nM.

On to `O=C(O)c1ccc2nc(Cc3ccc(-c4nc(OCc5ccc(Cl)cc5F)c(F)cc4F)cc3F)n(C[C@@H]3CCO3)c2c1` [Compound 260, (S)-2-(4-(6-(4-chloro-2-fluorobenzyloxy)-3,5-difluoropyridin-2-yl)-2-fluorobenzyl)-1-(oxetan-2-ylmethyl)-1H-benzo[d]imidazole-6-carboxylic acid], for which the half-maximal effective concentration (EC50) was below 15 nM.

Take `O=C(O)c1ccc2nc(Cc3ccc(-c4cccc(OCc5ccc(F)cc5F)n4)cc3F)n(C[C@@H]3CCO3)c2n1` [Compound 286, (S)-2-(4-(6-((2,4-difluorobenzyl)oxy)pyridin-2-yl)-2-fluorobenzyl)-3-(oxetan-2-ylmethyl)-3H-imidazo[4,5-b]pyridine-5-carboxylic acid]: the half-maximal effective concentration (EC50) was below 15 nM.

`O=C(O)c1ccc2nc(Cc3ccc(-c4cncc(OCc5ccc(Cl)cc5F)n4)cc3F)n(C[C@@H]3CCO3)c2c1` [Compound 265, (S)-2-(4-(6-((4-chloro-2-fluorobenzyl)oxy)pyrazin-2-yl)-2-fluorobenzyl)-1-(oxetan-2-ylmethyl)-1H-benzo[d]imidazole-6-carboxylic acid] had an EC50 below 15 nM.
